Literature values in paper PMC6099735, “Piplartine Analogues and Cytotoxic Evaluation against Glioblastoma” (Molecules : A Journal of Synthetic Chemistry and Natural …, 2018).

What was measured:
Design in all cases: method as in PMID 25920262
Details in all cases: MTT test; cited from earlier work
[1] = system: BF16F10-Nex2 (murine melanoma)
[2] = system: HL-60 (human leukemic cell)
[3] = system: HCT (human colon carcinoma)
[4] = system: HeLa (human cervical carcinoma)
A2258 (human melanoma) = system: A2258 (human melanoma)
[5] = system: U87MG (human glioblastoma)

Measured: IC50

COc1cc(/C=C/C(=O)N2CCC=CC2=O)cc(OC)c1OC [Compound 1, Piplartine]
> 200 µg/mL: all assays above
